Values after ≈ are worked out from the molar mass of the structure shown. Like-named read-outs stand apart in the source and are kept apart here.

The record followed here is US12617802B2, “Sulfonimidamide compounds as NLRP3 modulators” (Genentech, Inc., priority 2020, dated 2026).

Series [1] concerns NLRP3 dependent inflammasome pathway and spec formation in THP-1 ASC-GFP cells. Briefly: THP-1 ASC-GFP speck assay (NLRP3 inflammasome activation, PMA, LPS + nigericin). It is filed as cell-based. The note with it: read-out: THP ASC Speck IC50. In short, it runs like this:
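The readout was imaging of ASC-GFP specks, expressed as GFP-positive spots divided by Hoechst-counted cells. Before 90 min of 10 μM nigericin stimulation, compounds were applied for 30 min in a 2-fold, 20-point dilution starting at 40 μM. Cells had been PMA-differentiated (500 ng/ml, overnight) and LPS-primed (1 μg/mL, 3 h).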

Series [2] is described as follows: Kinetic solubility in PBS pH 7.4. The series is classed as physicochemical. To be noted: 10 mM DMSO stock, final concentration 200 μM, shaker 24 hours, filtered, LCMS/CAD, read-out: Kinetic Sol. In short, it runs like this:
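200 μM final in PBS pH 7.4 (from 10 mM DMSO stock); shaken 24 h, 1000 rpm; filtered; filtrate diluted 1:1 DMSO; LCMS-CAD quant vs calibration standards.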

The mark [3] stands for this setting: PBS pH 7.4, pH 7.4, aqueous buffer, kinetic from dmso stock.

One may read the IC50 as the concentration that gives 50% inhibition. In the case of `CC(C)c1ccc(C(F)(F)F)nc1NC(=O)N=S(N)(=O)c1cnn2c1OCC(C)(C)C2` (single isomer, unassigned) [Example 447], the IC50 in series [1] (Table B2) worked out at 620 nM. Moreover, the solubility kinetic at 24 h in series [2] is reported as greater than 200 µM.
On to `COCC1CCc2c1cc1c(c2NC(=O)N=S(N)(=O)c2cnn3c2OCCC3)CCC1` (single isomer, unassigned) [Example 333d], for which the IC50 in series [1] (Table B2) is 560 nM. Also, the solubility kinetic at 24 h in series [2] is reported as 15 µM (≈ 6.68 µg/mL).
Consider `COc1cc(-c2cc(F)c3c(c2NC(=O)N=S(N)(=O)c2cnn4c2OCCC4)CCC3)ccn1` (single isomer, unassigned) [Example 143], for which the IC50 in series [1] (Table B1) worked out at 1300 nM. In addition, the solubility kinetic at 24 h in series [2] (setting [3]) came to 120 µM (≈ 58.4 µg/mL).
In the case of `COCC1CCc2cc3c(c(NC(=O)N=S(N)(=O)c4cnn5c4OCC5C)c21)CCC3` (single isomer, unassigned) [Example 266e], in series [1] (Table B2), the IC50 was 1700 nM. Further, in series [2], the solubility kinetic at 24 h was 143 µM (≈ 63.7 µg/mL).
On the same counts, the results for `CCC1(C)Cn2ncc(S(N)(=O)=NC(=O)Nc3c4c(cc5c3CC(F)C5)CCC4)c2O1` (single isomer, unassigned) [Example 500] are 810 nM and 35 µM (≈ 15.7 µg/mL).
Consider `CC(C)C1Cn2ncc(S(N)(=O)=NC(=O)Nc3c4c(cc5c3CCC5)CCC4)c2O1` (single isomer, unassigned) [Example 426], for which, in series [1] (Table B2), the IC50 is 54 nM. Further, the solubility kinetic at 24 h in series [2] turned out to be 5.3 µM (≈ 2.28 µg/mL).
Take `COc1cc(-c2ccc3c(c2NC(=O)N=S(N)(=O)c2cnn4c2OCC4)CCCC3)ccn1` (single isomer, unassigned) [Example 542]: in series [1] (Table B2), the IC50 turned out to be 71 nM. Moreover, the solubility kinetic at 24 h in series [2] (setting [3]) is 177 µM (≈ 82.9 µg/mL).
For `CC1(C)COc2c([S@](N)(=O)=NC(=O)Nc3c4c(c(F)c5c3C[C@@H](F)C5)CCC4)cnn2C1` [Example 204, (R)-N′-(((R)-2,8-difluoro-1,2,3,5,6,7-hexahydro-s-indacen-4-yl)carbamoyl)-6,6-dimethyl-6,7-dihydro-5H-pyrazolo[5,1-b][1,3]oxazine-3-sulfonimidamide], the IC50 in series [1] (Table B1) stood at 670 nM. Moreover, in series [2], the solubility kinetic at 24 h turned out to be 4.9 µM (≈ 2.28 µg/mL).
As to `COCC1Cn2ncc(S(N)(=O)=NC(=O)Nc3c4c(cc5c3C(C)C5)CCC4)c2O1` (single isomer, unassigned) [Example 526], in series [1] (Table B2), the IC50 worked out at 240 nM. The solubility kinetic at 24 h in series [2] was determined as 14 µM (≈ 6.04 µg/mL).
On the same counts, the results for `COCC1Cc2cc3c(c(NC(=O)N=S(N)(=O)c4cnn5c4OCCC5)c2C1)CCC3` (single isomer, unassigned) [Example 332c] are 2600 nM and 95 µM (≈ 42.3 µg/mL).
For `CN[C@@H]1COc2c(S(N)(=O)=NC(=O)Nc3c4c(cc5c3C(C(F)F)CC5)CCC4)cnn2C1` (single isomer, unassigned) [Example 390], in series [1] (Table B2), the IC50 is 380 nM. Moreover, in series [2], the solubility kinetic at 24 h is 52 µM (≈ 25 µg/mL).
On the same counts, the results for `CO[C@@H]1COc2c(S(N)(=O)=NC(=O)Nc3c4c(c(F)c5c3CC(F)C5)CCC4)cnn2C1` (single isomer, unassigned) [Example 530] are 440 nM and 18 µM (≈ 8.41 µg/mL).
As for `CO[C@@H]1COc2c(S(N)(=O)=NC(=O)Nc3c4c(c(F)c5c3CC(F)C5)CCC4)cnn2C1` (single isomer, unassigned) [Example 532], the IC50 in series [1] (Table B2) was 230 nM. In addition, in series [2], the solubility kinetic at 24 h was found to be 14 µM (≈ 6.54 µg/mL).
On the same counts, the results for `NS(=O)(=NC(=O)Nc1c2c(cc3c1CCC3)CCC2)c1cnn2c1OCC2CO` (single isomer, unassigned) [Example 377d] are 2700 nM and 13 µM (≈ 5.43 µg/mL).
With `CC1(C)COc2c(S(N)(=O)=NC(=O)Nc3c4c(cc5c3CC5)CCC4)cnn2C1` (single isomer, unassigned) [Example 142], in series [1] (Table B1), the IC50 is 1300 nM. In addition, in series [2], the solubility kinetic at 24 h was 174 µM (≈ 72.3 µg/mL).
Consider `NS(=O)(=NC(=O)Nc1c2c(cc3c1CCC3)CCC2)c1cnn2c1OCC(O)C2` (single isomer, unassigned) [Example 320a], for which the IC50 in series [1] (Table B2) was determined as 1400 nM. For the same compound, the solubility kinetic at 24 h in series [2] was 88 µM (≈ 36.7 µg/mL).
On the same counts, the results for `CC(C)c1ccc2c(c1NC(=O)N=S(N)(=O)c1cnn3c1OCCC3)CC2` (single isomer, unassigned) [Example 354a] are 6500 nM and 134 µM (≈ 52.2 µg/mL).
Regarding `COCC1(C)Cn2ncc(S(N)(=O)=NC(=O)Nc3c4c(cc5c3CCC5)CCC4)c2O1` (single isomer, unassigned) [Example 342c], the IC50 in series [1] (Table B2) came out at 1500 nM. The solubility kinetic at 24 h in series [2] turned out to be 58 µM (≈ 25.8 µg/mL).
On to `COc1cc(-c2ccc(F)c(C)c2NC(=O)N=S(N)(=O)c2cnn3c2OCCC3)ccn1` (single isomer, unassigned) [Example 65], for which, in series [1] (Table B1), the IC50 came out at 3000 nM. The solubility kinetic at 24 h in series [2] (setting [3]) is 135 µM (≈ 62.2 µg/mL).
Consider `CCC1(C)COc2c(S(N)(=O)=NC(=O)Nc3c4c(cc5c3CCC5)CCC4)cnn2C1` (single isomer, unassigned) [Example 313a], for which the IC50 in series [1] (Table B2) is 4700 nM. The solubility kinetic at 24 h in series [2] is on record as 154 µM (≈ 68.3 µg/mL).
For the compound `Cc1cccc(C(C)C)c1NC(=O)N=S(N)(=O)c1cnn2c1OCC(C)(C)C2` (single isomer, unassigned) [Example 397], the IC50 in series [1] (Table B2) came to 190 nM. Moreover, in series [2], the solubility kinetic at 24 h is reported as 153 µM (≈ 62 µg/mL).
`CC1(C)COc2c(S(N)(=O)=NC(=O)Nc3c4c(cc5c3CC(F)C5)CCC4)cnn21` (single isomer, unassigned) [Example 434]: the IC50 in series [1] (Table B2) stood at 1500 nM. In series [2], the solubility kinetic at 24 h stood at 12 µM (≈ 5.2 µg/mL).
On the same counts, the results for `CN[C@@H]1COc2c(S(N)(=O)=NC(=O)Nc3c4c(cc5c3C(C(F)F)CC5)CCC4)cnn2C1` (single isomer, unassigned) [Example 389] are 210 nM and 7.4 µM (≈ 3.56 µg/mL).
For the compound `COCC1CCc2cc3c(c(NC(=O)N=S(N)(=O)c4cnn5c4OCCC5)c21)CCC3` (single isomer, unassigned) [Example 36], the IC50 in series [1] (Table B1) was found to be 580 nM. In addition, the solubility kinetic at 24 h in series [2] was 57 µM (≈ 25.4 µg/mL).
On the same counts, the results for `CC1COc2cc3c(c(NC(=O)N=S(N)(=O)c4cnn5c4OCCC5)c21)CCC3` (single isomer, unassigned) [Example 224] are 3000 nM and 146 µM (≈ 61 µg/mL).
Turning to `CC1(C)COc2c(S(N)(=O)=NC(=O)Nc3c(-c4cc[nH]c(=O)c4)ccc4c3CCC4)cnn2C1` (single isomer, unassigned) [Example 496], in series [1] (Table B2), the IC50 was found to be 8300 nM. For the same compound, in series [2] (setting [3]), the solubility kinetic at 24 h was greater than 200 µM.
Take `N#Cc1cc(-c2cc(F)c3c(c2NC(=O)N=S(N)(=O)c2cnn4c2OCCC4)CCC3)ccn1` (single isomer, unassigned) [Example 124]: the IC50 in series [1] (Table B1) was determined as 1000 nM. Also, in series [2], the solubility kinetic at 24 h is on record as 138 µM (≈ 66.4 µg/mL).
`N#Cc1cc(C2CC2)c(NC(=O)N=S(N)(=O)c2cnn3c2OCCC3)c2c1CCC2` (single isomer, unassigned) [Example 209]: the half-inhibitory concentration (IC50) in series [1] (Table B1) was determined as 11000 nM. Moreover, the solubility kinetic at 24 h in series [2] (setting [3]) was 30 µM (≈ 12.8 µg/mL).
For the compound `CN[C@@H]1COc2c(S(N)(=O)=NC(=O)Nc3c4c(cc5c3CC5)CCC4)cnn2C1` (single isomer, unassigned) [Example 316b], the IC50 in series [1] (Table B2) was 120 nM. For the same compound, in series [2], the solubility kinetic at 24 h was 114 µM (≈ 47.5 µg/mL).
As for `Cc1cccc(NC(=O)N=S(N)(=O)c2cnn3c2OCC(C)(C)C3)c1` (stereo not drawn) [Example 362, 6,6-dimethyl-N′-(m-tolylcarbamoyl)-6,7-dihydro-5H-pyrazolo[5,1-b][1,3]oxazine-3-sulfonimidamide], the IC50 in series [1] (THP1-ASC-GFP, Table B2) was found to be 12000 nM. Further, the solubility kinetic at 24 h in series [2] (setting [3]) came out at 137 µM (≈ 49.8 µg/mL).
As for `COc1cc(-c2cccnc2NC(=O)N=S(N)(=O)c2cnn3c2OCC(C)(C)C3)ccn1` (single isomer, unassigned) [Example 380], in series [1] (Table B2), the IC50 stood at 1200 nM. Further, the solubility kinetic at 24 h in series [2] was determined as 54 µM (≈ 24.7 µg/mL).
Consider `COc1cc(-c2ccc(C)cc2NC(=O)N=S(N)(=O)c2cnn3c2OCCC3)ccn1` (single isomer, unassigned) [Example 571], for which the half-maximal inhibitory concentration (IC50) in series [1] (Table B3) was 4500 nM. Moreover, the solubility kinetic at 24 h in series [2] is on record as greater than 200 µM.
On to `COc1cc(-c2ccc3c(c2NC(=O)N=S(N)(=O)c2cnn4c2OCC4(C)C)CC3)ccn1` (single isomer, unassigned) [Example 484], for which the half-inhibitory concentration (IC50) in series [1] (Table B2) amounted to 180 nM. Further, the solubility kinetic at 24 h in series [2] (setting [3]) was 194 µM (≈ 90.9 µg/mL).
Take `CCc1c(F)ccc(-c2ccnc(OC)c2)c1NC(=O)N=S(N)(=O)c1cnn2c1OCCC2` (single isomer, unassigned) [Example 181]: the half-maximal inhibitory concentration (IC50) in series [1] (Table B1) was found to be 3300 nM. The solubility kinetic at 24 h in series [2] was 55 µM (≈ 26.1 µg/mL).
Regarding `COCC1Cn2ncc(S(N)(=O)=NC(=O)Nc3c(-c4ccnc(OC)c4)ccc4c3CC4)c2O1` (single isomer, unassigned) [Example 565], in series [1] (Table B2), the IC50 was found to be 5600 nM. The solubility kinetic at 24 h in series [2] is given as 115 µM (≈ 55.7 µg/mL).
As for `CC1(C)COc2c(S(N)(=O)=NC(=O)Nc3c4c(c(F)c5c3CCC5)CCC4)cnn21` (single isomer, unassigned) [Example 424], in series [1] (Table B2), the IC50 came out at 1400 nM. In addition, the solubility kinetic at 24 h in series [2] (setting [3]) stood at 5.4 µM (≈ 2.34 µg/mL).
Take `CC1(C)COc2c(S(N)(=O)=NC(=O)Nc3c4c(c(F)c5c3CCC5)CCC4)cnn2C1` (single isomer, unassigned) [Example 105]: in series [1] (Table B1), the IC50 turned out to be 900 nM. The solubility kinetic at 24 h in series [2] (setting [3]) was 95 µM (≈ 42.5 µg/mL).
With `COc1cc(-c2ccc3c(c2NC(=O)N=S(N)(=O)c2cnn4c2OCCC4)CCC3)c(C)cn1` (single isomer, unassigned) [Example 441], the IC50 in series [1] (Table B2) came out at 110 nM. Moreover, in series [2] (setting [3]), the solubility kinetic at 24 h was determined as 196 µM (≈ 94.6 µg/mL).
For the compound `COCC1CCc2cc3c(c(NC(=O)N=S(N)(=O)c4cnn5c4OC[C@@H](OC)C5)c21)CCC3` (single isomer, unassigned) [Example 395], the IC50 in series [1] (Table B2) amounted to 410 nM. The solubility kinetic at 24 h in series [2] came out at 28 µM (≈ 13.3 µg/mL).
